Test results as given in patent US5059438A, “Compositions and methods for inhibiting browning in foods using resorcinol derivatives” (Enzytech, Inc., priority 1990, dated 1991).

How the values were obtained:
[1] = tested on: McIntosh apples, browning; experiment: Inhibition of browning in apples by Formula V and YM5 eluate; details: lactose 9.0%, 1,4-diaminobutane 5 mM
Protocol: Two fresh and unbruised whole McIntosh apples, held at ambient temperature,were sliced with a stainless steel paring knife into quarters, cored, then cut into 1/4-inch slices. A volume of 0.8 mL of each of the treatment solutions listed in Table 5 at ambient temperature was applied onto the top exposed surface of freshly cut white slices, triplicate samples per treatment. […] Following application, the slices stood at ambient temperature, exposed to air and light, for periodic visual observation of relative rate and extent of browning, from 15 minutes to 4 hours.

PPO (mushroom) = experiment: Inhibition of PPO by various resorcinol derivatives (linear spectrophotometric assay); assay type: biochemical; details: 0.133 mM L-DOPA, pH 6.5, 25° C., 475 nm, read-out: I50 (apparent inhibition constant)
Protocol: In order to determine the effect of various resorcinol compounds on the inhibition of PPO (mushroom), a linear spectrophotmetric assay system similar to that described in Example 1 was used. The assay mixture consisted of:
5 mM sodium phosphate, pH 6.5;
0.133 mM L-dihydroxyphenylalanine (L-DOPA); PPO (mushroom); and
+/- varied concentrations of the compound to be tested
The rate of the reaction was monitored by measuring the change in absorbance per minute at 475 nm at 25° C.
I50 represents the concentration of inhibitor necessary to obtain fifty (50%) percent inhibition of the enzyme.

pink shrimp melanosis = experiment: Effect of 4-hexylresorcinol, Formula VI and Formula IV compounds on development of shrimp melanosis; parameters: species or system Penaeus duorarum
Protocol: In one embodiment of the present invention, pink shrimp were treated with an aqueous solution of the compound of Formula II. Formula II was used at concentrations ranging from 0.0001 to 0.005%, and compared to shrimp treated with sodium bisulfite and sea water. The sea water treated shrimp developed melanosis spots within 1-2 days. […] A concentration of up to about 0.1% of Formula II can be used for inhibiting browning.
Harvests were arranged such that fresh, heads-on pink shrimp were obtained within less than 12 hours post-harvest at the dock. All shrimp were routinely washed on-board and temporarily stored in ice. The basic procedure was to rinse 400-600 grams of shrimp in 2.5 liters of variable dip compositions and concentrations for 1 minute then drain and package in plastic bags to be stored in ice. The bags were considered necessary to eliminate the variable influence of melting ice. Iced containers with packaged shrimp were stored in 35° F. (1.7° C.) refrigeration with reicing every other day.
Development of melanosis was scored and photographed routinely during 2 weeks of storage. The bags of shrimp had been numbered such that the investigator could not distinguish amongst the various treatments. One experienced investigator did all scoring relative to the aforementioned scale (Table 2). The scale was accompanied by pre-developed color prints depicting common examples of the advancing stages for melanosis. The intent was to screen for obvious differences between treatments, thus selecting the best treatments for subsequent tests with statistical evaluations.
Pink shrimp were treated and evaluated as described in Example 8 except that the compound of Formula II (4-hexylresorcinol, Sigma Chemical Co.) was substituted for the Formula V compound. Pink shrimp were dipped into solutions of 0.0001-0.005% of the Formula II compound and stored as described above.
Pink shrimp were treated and evaluated as described in Example 8 except that the compound of Formula VI (see Example 6) was substituted for the Formula V compound. Pink shrimp were dipped into solutions of 0.001-0.025%of the Formula VI compound and stored as described above.
Pink shrimp were treated and evaluated as described in Example 8 except that the compound of Formula IV (2,4-dihydroxyphenylpropionic acid) was substituted for the Formula V compound. Pink shrimp were dipped into solutions of 0.001-0.1% the Formula IV compound and stored as described above.

[2] = tested on: fresh pink shrimp (Penaeus duorarum) melanosis; experiment: Effect of Formula V compound on fresh pink shrimp melanosis
Protocol: Pink shrimp (Penaeus duorarum) were treated and evaluated as described in Example 8 except that the experiment was carried out on a shrimp boat with freshly caught shrimp. The shrimp were not frozen prior to treatment with various concentrations of the compound of Formula V. All solutions were prepared in sea water.
Fresh pink shrimp were treated and evaluated as described in Example 12. The shrimp treated with 0.025% of the compound of Formula V were stored directly or following a sea water rinse, post-treatment.
Fresh pink shrimp were treated and evaluated as described in Example 12. The shrimp were dipped in a 0.01% solution of the compound of Formula V made up in either sea or fresh water.
Fresh pink shrimp were treated and evaluated as described in Example 12. In this example, different one pound batches of shrimp were dipped into the same one liter solution of 0.01% of the Formula V compound for one minute each. A total of eight dips were performed.

PPO in peaches = details: Wong et al. 1971; cited from earlier work
[3] = tested on: mushroom PPO (catecholase); details: Kuttner and Wagreich 1952; cited from earlier work

Compound: NCCCCN [1,4-diaminobutane]
- prevention of browning of apples, conclusion [1]: did not prevent browning

Compound: O=C(O)c1ccc(O)cc1O [4-Carboxyresorcinol, 2,4-Dihydroxybenzoic Acid]
- IC50 (PPO (mushroom)): 150 µM

Compound: Oc1ccc(C2CCCCC2)c(O)c1 [4-Cyclohexylresorcinol]
- IC50 (PPO (mushroom)): 0.2 µM

Compound: CCCCCCCCCCCCc1ccc(O)cc1O [4-Dodecylresorcinol]
- IC50 (PPO (mushroom)): 0.3 µM

Compound: CCc1ccc(O)cc1O [4-Ethylresorcinol]
- IC50 (PPO (mushroom)): 0.8 µM

Compound: CCCCCC(=O)c1ccc(O)cc1O [4-Hexanoylresorcinol]
- IC50 (PPO (mushroom)): 750 µM

Compound: CCCc1ccc(O)cc1O [4-n-Propylresorcinol]
- IC50 (PPO (mushroom)): 1.8 µM

Compound: CCCCCCc1ccc(O)cc1O [Formula II, 4-hexylresorcinol]
- IC50 (PPO (mushroom)): 0.5 µM
- inhibiting browning of shrimp on a weight basis vs sodium bisulfite (pink shrimp melanosis; 0.0001 to 0.005% (FIG. 10)): more effective on a weight basis than sodium bisulfite
- inhibiting shrimp melanosis vs sodium bisulfite (pink shrimp melanosis; 0.005% by weight vs 1.25% by weight bisulfite (FIG. 10)): almost as effective in inhibiting shrimp melanosis as a solution of 1.25% by weight bisulfite
- lowest concentration inhibiting formation of shrimp melanosis (potent inhibitor at concentrations as low as) (pink shrimp melanosis; FIG. 10, tested 0.0001-0.005%): 0.0005%

Compound: O=C(O)CCc1ccc(O)cc1O [Formula IV, 2,4-dihydroxyphenylpropionic acid]
- lowest concentration inhibiting formation of shrimp melanosis (inhibitor at concentrations as low as) (pink shrimp melanosis; FIG. 12, tested 0.001-0.1%): 0.05%

Compound: NCCCCNC(=O)CCc1ccc(O)cc1O [Formula V, 2,4-dihydroxyphenylpropionyldiaminobutane]
- effect of fresh or sea water as solvent on inhibition of shrimp melanosis (FIG. 8) ([2]; 0.01%): no significant effect
- effect of post-treatment sea water rinse on inhibition of shrimp melanosis (FIG. 7) ([2]; 0.025%): no significant effect

Compound: O=C(CCc1ccc(O)cc1O)NCCCCNC(=O)CCc1ccc(O)cc1O [Formula VI, bis-2,4-dihydroxyphenylpropionyldiaminobutane]
- IC50 (PPO (mushroom)): 5 µM
- lowest concentration inhibiting formation of shrimp melanosis (potent inhibitor at concentrations as low as) (pink shrimp melanosis; FIG. 11, tested 0.001-0.025%): 0.005%

Compound: O=C(CCc1ccc(O)cc1O)NCCCCNCCCNC(=O)CCc1ccc(O)cc1O [Formula VII, bis-2,4-dihydroxyphenylpropionylspermidine]
- IC50 (PPO (mushroom)): 5 µM

Compound: OC[C@H]1O[C@@H](O[C@H]2[C@H](O)[C@@H](O)C(O)O[C@@H]2CO)[C@H](O)[C@@H](O)[C@H]1O (stereo partly shown) [Lactose]
- prevention of browning of apples, conclusion [1]: did not prevent browning

Compound: Oc1cccc(O)c1 [Resorcinol, 1,3-dihydroxybenzene]
- IC50 (PPO (mushroom)): 2700 µM
- reaction with 4-methyl-o-quinone formed by PPO in peaches (PPO in peaches): react with 4-methyl-o-quinone
- substrate for PPO (PPO in peaches): not substrates for PPO

Compound: O=C(O)c1ccccc1 [benzoic acid]
- inhibition of mushroom PPO (catecholase) [3]: inhibited

Compound: Oc1cc(O)c2c(c1)O[C@H](c1ccc(O)c(O)c1)[C@@H](O)C2 [d-catechin]
- reaction with 4-methyl-o-quinone formed by PPO in peaches (PPO in peaches): react with 4-methyl-o-quinone
- substrate for PPO (PPO in peaches): not substrates for PPO

Compound: Cc1cc(O)cc(O)c1 [orcinol]
- reaction with 4-methyl-o-quinone formed by PPO in peaches (PPO in peaches): react with 4-methyl-o-quinone
- substrate for PPO (PPO in peaches): not substrates for PPO

Compound: Oc1cc(O)cc(O)c1 [phloroglucinol]
- reaction with 4-methyl-o-quinone formed by PPO in peaches (PPO in peaches): react with 4-methyl-o-quinone
- substrate for PPO (PPO in peaches): not substrates for PPO
